Experimental data published in patent publication US11076594B2, “Pyrazolone compound or salt thereof, preparation method therefor, herbicide composition and use thereof” (QINGDAO KINGAGROOT CHEMICAL COMPOUNDS CO., LTD., priority 2015, dated 2021).

What was measured:
Assay type in all cases: in vivo
Details in all cases: post-emergence spray at 4-5 leaf stage, 250 g/ha active ingredient with 450 kg/ha water, rated after 3 weeks in greenhouse
wheat = assay: post-emergence stage experiment, crop (Table 1)
Protocol: (§1) The activity level standard of harmful plant destruction (i.e. growth control rate) is as follows: The above described growth control rate is fresh weight control rate. Monocotyledonous and dicotyledonous weed seeds and main crop seeds (i.e. wheat, corn, rice, soybean, cotton, oilseed, millet and sorghum.) were put into a plastic pot loaded with soil. Then covered with 0.5-2 cm soil, the seeds were allowed to grow in good greenhouse environment. The test plants were treated at 4-5 leaf stage 2-3 weeks after sowing. The test compounds of the invention were dissolved with acetone respectively, then added with 80 tween and diluted by certain amount of water to certain concentration. The solution was sprayed to the plants with a sprayer. Then the plants were cultured for 3 weeks in the greenhouse.

rice = assay: post-emergence stage experiment, crop (Table 1)
Protocol: as §1

echinochloa = assay: weed control effect in post-emergence stage (Table 1); parameters: key: Level 10: completely dead; Level 9: above 95% growth control rate; Level 8: above 90% growth control rate; Level 7: above 80% growth control rate; Level 6: above 70% growth control rate; Level 5: above 60% growth control rate; Level 4: above 50% growth control rate; Level 3: above 20% growth control rate; Level 2: 5%-20% growth control rate; Level 1: below 5% growth control rate
Protocol: as §1

crab grass = assay: as above; parameters: key: Level 10: completely dead; Level 9: above 95% growth control rate; Level 8: above 90% growth control rate; Level 7: above 80% growth control rate; Level 6: above 70% growth control rate; Level 5: above 60% growth control rate; Level 4: above 50% growth control rate; Level 3: above 20% growth control rate; Level 2: 5%-20% growth control rate; Level 1: below 5% growth control rate
Protocol: as §1

foxtail = assay: as above; parameters: key: Level 10: completely dead; Level 9: above 95% growth control rate; Level 8: above 90% growth control rate; Level 7: above 80% growth control rate; Level 6: above 70% growth control rate; Level 5: above 60% growth control rate; Level 4: above 50% growth control rate; Level 3: above 20% growth control rate; Level 2: 5%-20% growth control rate; Level 1: below 5% growth control rate
Protocol: as §1

rorippa indica = assay: as above; parameters: key: Level 10: completely dead; Level 9: above 95% growth control rate; Level 8: above 90% growth control rate; Level 7: above 80% growth control rate; Level 6: above 70% growth control rate; Level 5: above 60% growth control rate; Level 4: above 50% growth control rate; Level 3: above 20% growth control rate; Level 2: 5%-20% growth control rate; Level 1: below 5% growth control rate
Protocol: as §1

bidens bipinnata = assay: as above; parameters: key: Level 10: completely dead; Level 9: above 95% growth control rate; Level 8: above 90% growth control rate; Level 7: above 80% growth control rate; Level 6: above 70% growth control rate; Level 5: above 60% growth control rate; Level 4: above 50% growth control rate; Level 3: above 20% growth control rate; Level 2: 5%-20% growth control rate; Level 1: below 5% growth control rate
Protocol: as §1

Indian mallow = assay: as above; parameters: key: Level 10: completely dead; Level 9: above 95% growth control rate; Level 8: above 90% growth control rate; Level 7: above 80% growth control rate; Level 6: above 70% growth control rate; Level 5: above 60% growth control rate; Level 4: above 50% growth control rate; Level 3: above 20% growth control rate; Level 2: 5%-20% growth control rate; Level 1: below 5% growth control rate
Protocol: as §1

| SMILES | effect on crop, Wheat (level) (wheat) | effect on crop, Rice (level) (rice) | weed control effect, Echinochloa (level) (echinochloa) | weed control effect, Crab grass (level) (crab grass) | weed control effect, Green foxtail (level) (foxtail) | weed control effect, Rorippa indica (level) (rorippa indica) | weed control effect, Bidens bipinnata (level) (bidens bipinnata) | weed control effect, Indian mallow (level) (Indian mallow) |
| --- | --- | --- | --- | --- | --- | --- | --- | --- |
| CC(=O)Nc1c(C(F)(F)F)ccc(C(=O)c2c(C)nn(C)c2O)c1Cl [Compound 002] | 5 (Level 5: above 60% growth control rate) | 7 (Level 7: above 80% growth control rate) | 8 (Level 8: above 90% growth control rate) | 4 (Level 4: above 50% growth control rate) | 7 (Level 7: above 80% growth control rate) | 9 (Level 9: above 95% growth control rate) | 8 (Level 8: above 90% growth control rate) | 10 |
| CC(=O)N(C)c1c(C(F)(F)F)ccc(C(=O)c2c(C)nn(C)c2O)c1Cl [Compound 004] | 0 | 5 (Level 5: above 60% growth control rate) | 4 (Level 4: above 50% growth control rate) | 4 (Level 4: above 50% growth control rate) | 1 (Level 1: below 5% growth control rate) | 9 (Level 9: above 95% growth control rate) | 9 (Level 9: above 95% growth control rate) | 9 (Level 9: above 95% growth control rate) |
| CCCCN(C(C)=O)c1c(C(F)(F)F)ccc(C(=O)c2c(C)nn(C)c2O)c1Cl [Compound 006] | 0 | 1 (Level 1: below 5% growth control rate) | 10 | 2 (Level 2: 5%-20% growth control rate) | 3 (Level 3: above 20% growth control rate) | 5 (Level 5: above 60% growth control rate) | 5 (Level 5: above 60% growth control rate) | 0 |
| COCCCN(C(C)=O)c1c(C(F)(F)F)ccc(C(=O)c2c(C)nn(C)c2O)c1Cl [Compound 008] | 0 | 0 | 10 | 3 (Level 3: above 20% growth control rate) | 10 | 0 | 10 | 3 (Level 3: above 20% growth control rate) |
| CCOCCCN(C(C)=O)c1c(C(F)(F)F)ccc(C(=O)c2c(C)nn(C)c2O)c1Cl [Compound 009] | 0 | 5 (Level 5: above 60% growth control rate) | 10 | 1 (Level 1: below 5% growth control rate) | 9 (Level 9: above 95% growth control rate) | 0 | 5 (Level 5: above 60% growth control rate) | 2 (Level 2: 5%-20% growth control rate) |
| CC(=O)N(CCCOC(C)C)c1c(C(F)(F)F)ccc(C(=O)c2c(C)nn(C)c2O)c1Cl [Compound 010] | 0 | 0 | 6 (Level 6: above 70% growth control rate) | 1 (Level 1: below 5% growth control rate) | 5 (Level 5: above 60% growth control rate) | 0 | 5 (Level 5: above 60% growth control rate) | 0 |
| CCCCOCCCN(C(C)=O)c1c(C(F)(F)F)ccc(C(=O)c2c(C)nn(C)c2O)c1Cl [Compound 011] | 0 | 0 | 1 (Level 1: below 5% growth control rate) | 1 (Level 1: below 5% growth control rate) | 1 (Level 1: below 5% growth control rate) | 0 | 5 (Level 5: above 60% growth control rate) | 0 |
| COCCOCCCN(C(C)=O)c1c(C(F)(F)F)ccc(C(=O)c2c(C)nn(C)c2O)c1Cl [Compound 012] | 0 | 0 | 9 (Level 9: above 95% growth control rate) | 1 (Level 1: below 5% growth control rate) | 2 (Level 2: 5%-20% growth control rate) | 0 | 10 | 10 |
| Cc1nn(C)c(O)c1C(=O)c1ccc(C(F)(F)F)c(N2CCCC2=O)c1Cl [Compound 018] | 3 (Level 3: above 20% growth control rate) |  | 8 (Level 8: above 90% growth control rate) | 10 | 10 | 10 | 10 | 9 (Level 9: above 95% growth control rate) |
| Cc1nn(C)c(O)c1C(=O)c1ccc(C(F)(F)F)c(-n2ccnc2)c1Cl [Compound 063] | 0 |  | 1 (Level 1: below 5% growth control rate) | 0 | 1 (Level 1: below 5% growth control rate) | 9 (Level 9: above 95% growth control rate) | 10 | 10 |
| Cc1cnn(-c2c(C(F)(F)F)ccc(C(=O)c3c(C)nn(C)c3O)c2Cl)c1 [Compound 084] | 0 | 7 (Level 7: above 80% growth control rate) | 10 | 8 (Level 8: above 90% growth control rate) | 10 | 9 (Level 9: above 95% growth control rate) | 10 | 10 |
| Cc1cc(C)n(-c2c(C(F)(F)F)ccc(C(=O)c3c(C)nn(C)c3O)c2Cl)n1 [Compound 093] | 0 | 0 | 5 (Level 5: above 60% growth control rate) | 2 (Level 2: 5%-20% growth control rate) | 2 (Level 2: 5%-20% growth control rate) | 0 | 5 (Level 5: above 60% growth control rate) | 5 (Level 5: above 60% growth control rate) |
| Cc1nn(C)c(O)c1C(=O)c1ccc(C(F)(F)F)c(-n2cc(Cl)cn2)c1Cl [Compound 095] | 0 | 6 (Level 6: above 70% growth control rate) | 1 (Level 1: below 5% growth control rate) | 1 (Level 1: below 5% growth control rate) | 1 (Level 1: below 5% growth control rate) | 0 |  | 0 |
